Experiments:
[1] = Cytotoxicity against dog MDCK cells assessed as cell viability measured after 48 hrs by MTT assay; assay type: toxicity, cell-based, Canis lupus familiaris
[2] = Selectivity index, ratio of CC50 for cytotoxicity against dog MDCK cells to IC50 for anti-viral activity against Influenza A virus (A/Puerto Rico/8/34 infected in MDCK cells; assay type: toxicity, cell-based; conditions: read-out: Selectivity Index

CSc1ccc(-c2ccc3[nH]c(Cc4c(O)c(C)cc(C(C)=O)c4O)c(Cc4c(O)c(C)cc(C(C)=O)c4O)c3c2)cc1
CC50 at 48 h [1]: > 300 µM | selectivity ratio [2]: > 17.1

CC(=O)c1cc(C)c(O)c(Cc2[nH]c3ccc(-c4ccc(Cl)cc4)cc3c2Cc2c(O)c(C)cc(C(C)=O)c2O)c1O
CC50 at 48 h [1]: > 300 µM | selectivity ratio [2]: > 11.1

CSc1ccc(-c2ccc3c(Cc4c(O)c(C)cc(C(C)=O)c4O)c(Cc4c(O)c(C)cc(C(C)=O)c4O)[nH]c3c2)cc1
CC50 at 48 h [1]: > 300 µM | selectivity ratio [2]: > 33

COc1cccc(OC)c1-c1ccc2c(Cc3c(O)c(C)cc(C(C)=O)c3O)c(Cc3c(O)c(C)cc(C(C)=O)c3O)[nH]c2c1
CC50 at 48 h [1]: > 300 µM | selectivity ratio [2]: > 15.4

CC(=O)c1cc(C)c(O)c(Cc2[nH]c3ccc(-c4ccc5ccccc5c4)cc3c2Cc2c(O)c(C)cc(C(C)=O)c2O)c1O
CC50 at 48 h [1]: > 300 µM | selectivity ratio [2]: > 14.5

CC(=O)c1cc(C)c(O)c(Cc2[nH]c3cc(-c4ccccc4)ccc3c2Cc2c(O)c(C)cc(C(C)=O)c2O)c1O
CC50 at 48 h [1]: > 300 µM | selectivity ratio [2]: > 12.8

CC(=O)c1cc(C)c(O)c(Cc2c(Cc3c(O)c(C)cc(C(C)=O)c3O)n(Cc3ccccc3)c3ccccc23)c1O
CC50 at 48 h [1]: > 300 µM

CC(=O)c1cc(C)c(O)c(Cc2[nH]c3ccc(-c4cccc(O)c4)cc3c2Cc2c(O)c(C)cc(C(C)=O)c2O)c1O
CC50 at 48 h [1]: 152 µM

CC(=O)c1cc(C)c(O)c(Cc2[nH]c3ccc(Cl)cc3c2Cc2c(O)c(C)cc(C(C)=O)c2O)c1O
CC50 at 48 h [1]: > 300 µM

CC(=O)c1cc(C)c(O)c(Cc2[nH]c3cc(-c4ccc(Cl)cc4)ccc3c2Cc2c(O)c(C)cc(C(C)=O)c2O)c1O
CC50 at 48 h [1]: > 300 µM

CC(=O)c1cc(C)c(O)c(Cc2[nH]c3cc(-c4ccccc4F)ccc3c2Cc2c(O)c(C)cc(C(C)=O)c2O)c1O
CC50 at 48 h [1]: > 300 µM

COc1ccc(-c2ccc3c(Cc4c(O)c(C)cc(C(C)=O)c4O)c(Cc4c(O)c(C)cc(C(C)=O)c4O)[nH]c3c2)cc1OC
CC50 at 48 h [1]: 240 µM | selectivity ratio [2]: 12.2

COc1ccc(-c2ccc3[nH]c(Cc4c(O)c(C)cc(C(C)=O)c4O)c(Cc4c(O)c(C)cc(C(C)=O)c4O)c3c2)cc1OC
CC50 at 48 h [1]: > 300 µM | selectivity ratio [2]: > 16.6

CC(=O)c1cc(C)c(O)c(Cc2[nH]c3ccc(/C=C/c4ccccc4)cc3c2Cc2c(O)c(C)cc(C(C)=O)c2O)c1O
CC50 at 48 h [1]: > 300 µM

CC(=O)c1cc(C)c(O)c(Cc2[nH]c3cc(-c4cc(C(C)(C)C)cc(C(C)(C)C)c4)ccc3c2Cc2c(O)c(C)cc(C(C)=O)c2O)c1O
CC50 at 48 h [1]: 280 µM | selectivity ratio [2]: 10.4

CC(=O)c1cc(C)c(O)c(Cc2[nH]c3cc(C)ccc3c2Cc2c(O)c(C)cc(C(C)=O)c2O)c1O
CC50 at 48 h [1]: > 300 µM | selectivity ratio [2]: > 19.9

CC(=O)c1cc(C)c(O)c(Cc2[nH]c3ccc(-c4ccc(F)cc4)cc3c2Cc2c(O)c(C)cc(C(C)=O)c2O)c1O
CC50 at 48 h [1]: 212 µM

CC(=O)c1cc(C)c(O)c(Cc2[nH]c3ccc(-c4ccc(C(F)(F)F)cc4)cc3c2Cc2c(O)c(C)cc(C(C)=O)c2O)c1O
CC50 at 48 h [1]: > 300 µM | selectivity ratio [2]: > 13.7

CC(=O)c1cc(C)c(O)c(Cc2[nH]c3ccc(F)cc3c2Cc2c(O)c(C)cc(C(C)=O)c2O)c1O
CC50 at 48 h [1]: 281 µM

CC(=O)c1cc(C)c(O)c(Cc2[nH]c3ccc(C)cc3c2Cc2c(O)c(C)cc(C(C)=O)c2O)c1O
CC50 at 48 h [1]: > 300 µM | selectivity ratio [2]: > 14.6

CC(=O)c1cc(C)c(O)c(Cc2[nH]c3cc(-c4c5ccccc5cc5ccccc45)ccc3c2Cc2c(O)c(C)cc(C(C)=O)c2O)c1O
CC50 at 48 h [1]: > 300 µM | selectivity ratio [2]: > 36.1

CC(=O)c1cc(C)c(O)c(Cc2[nH]c3cc(-c4ccc(F)cc4)ccc3c2Cc2c(O)c(C)cc(C(C)=O)c2O)c1O
CC50 at 48 h [1]: 256 µM | selectivity ratio [2]: 13.4

CC(=O)c1cc(C)c(O)c(Cc2[nH]c3cc(-c4ccsc4)ccc3c2Cc2c(O)c(C)cc(C(C)=O)c2O)c1O
CC50 at 48 h [1]: > 300 µM

CC(=O)c1cc(C)c(O)c(Cc2[nH]c3ccc(-c4ccsc4)cc3c2Cc2c(O)c(C)cc(C(C)=O)c2O)c1O
CC50 at 48 h [1]: > 300 µM

CC(=O)c1cc(C)c(O)c(Cc2[nH]c3cc(-c4ccc5c(c4)CCO5)ccc3c2Cc2c(O)c(C)cc(C(C)=O)c2O)c1O
CC50 at 48 h [1]: > 300 µM

COc1ccc(-c2ccc3[nH]c(Cc4c(O)c(C)cc(C(C)=O)c4O)c(Cc4c(O)c(C)cc(C(C)=O)c4O)c3c2)cc1
CC50 at 48 h [1]: > 300 µM | selectivity ratio [2]: > 18.4

CC(=O)c1cc(C)c(O)c(Cc2[nH]c3cc(-c4ccc5cccnc5c4)ccc3c2Cc2c(O)c(C)cc(C(C)=O)c2O)c1O
CC50 at 48 h [1]: > 300 µM

CC(=O)c1cc(C)c(O)c(Cc2[nH]c3cc(-c4ccc(C(F)(F)F)cc4)ccc3c2Cc2c(O)c(C)cc(C(C)=O)c2O)c1O
CC50 at 48 h [1]: > 300 µM | selectivity ratio [2]: > 12

CC(=O)c1cc(C)c(O)c(Cc2[nH]c3cc(-c4ccc(C)cc4)ccc3c2Cc2c(O)c(C)cc(C(C)=O)c2O)c1O
CC50 at 48 h [1]: > 300 µM | selectivity ratio [2]: > 12.4

CC(=O)c1cc(C)c(O)c(Cc2[nH]c3ccc(-c4csc5ccccc45)cc3c2Cc2c(O)c(C)cc(C(C)=O)c2O)c1O
CC50 at 48 h [1]: > 300 µM | selectivity ratio [2]: > 12.8

CC(=O)c1cc(C)c(O)c(Cc2[nH]c3ccc(-c4cc(C)cc(C)c4)cc3c2Cc2c(O)c(C)cc(C(C)=O)c2O)c1O
CC50 at 48 h [1]: > 300 µM | selectivity ratio [2]: > 22.2

COc1cc(-c2ccc3[nH]c(Cc4c(O)c(C)cc(C(C)=O)c4O)c(Cc4c(O)c(C)cc(C(C)=O)c4O)c3c2)cc(OC)c1OC
CC50 at 48 h [1]: > 300 µM | selectivity ratio [2]: > 37.5

CC(=O)c1cc(C)c(O)c(Cc2[nH]c3ccc(-c4ccc5ncccc5c4)cc3c2Cc2c(O)c(C)cc(C(C)=O)c2O)c1O
CC50 at 48 h [1]: > 300 µM | selectivity ratio [2]: > 16.2

CC(=O)c1cc(C)c(O)c(Cc2[nH]c3ccc(-c4c5ccccc5c(-c5ccccc5)c5ccccc45)cc3c2Cc2c(O)c(C)cc(C(C)=O)c2O)c1O
CC50 at 48 h [1]: > 300 µM

CC(=O)c1cc(C)c(O)c(Cc2[nH]c3cc(-c4ccc5ccccc5c4)ccc3c2Cc2c(O)c(C)cc(C(C)=O)c2O)c1O
CC50 at 48 h [1]: > 300 µM | selectivity ratio [2]: > 11.5

CC(=O)c1cc(C)c(O)c(Cc2[nH]c3ccc(Br)cc3c2Cc2c(O)c(C)cc(C(C)=O)c2O)c1O
CC50 at 48 h [1]: 233 µM | selectivity ratio [2]: 9.2

CC(=O)c1cc(C)c(O)c(Cc2[nH]c3ccc(-c4ccc(C)cc4)cc3c2Cc2c(O)c(C)cc(C(C)=O)c2O)c1O
CC50 at 48 h [1]: > 300 µM | selectivity ratio [2]: > 19.4

COc1ccc2c(Cc3c(O)c(C)cc(C(C)=O)c3O)c(Cc3c(O)c(C)cc(C(C)=O)c3O)[nH]c2c1
CC50 at 48 h [1]: > 300 µM | selectivity ratio [2]: > 23.8

CC(=O)c1cc(C)c(O)c(Cc2[nH]c3cc(-c4ccc5c(c4)OCCO5)ccc3c2Cc2c(O)c(C)cc(C(C)=O)c2O)c1O
CC50 at 48 h [1]: > 300 µM | selectivity ratio [2]: > 15.5

CC(=O)c1cc(C)c(O)c(Cc2[nH]c3cc(-c4c5ccccc5c(-c5ccccc5)c5ccccc45)ccc3c2Cc2c(O)c(C)cc(C(C)=O)c2O)c1O
CC50 at 48 h [1]: > 300 µM

COc1cccc(OC)c1-c1ccc2[nH]c(Cc3c(O)c(C)cc(C(C)=O)c3O)c(Cc3c(O)c(C)cc(C(C)=O)c3O)c2c1
CC50 at 48 h [1]: 271 µM | selectivity ratio [2]: 12.9

CC(=O)c1cc(C)c(O)c(Cc2[nH]c3ccc(-c4cc(C(F)(F)F)cc(C(F)(F)F)c4)cc3c2Cc2c(O)c(C)cc(C(C)=O)c2O)c1O
CC50 at 48 h [1]: > 300 µM

C=CCn1c(Cc2c(O)c(C)cc(C(C)=O)c2O)c(Cc2c(O)c(C)cc(C(C)=O)c2O)c2ccccc21
CC50 at 48 h [1]: > 300 µM

CC(=O)c1cc(C)c(O)c(Cc2c(Cc3c(O)c(C)cc(C(C)=O)c3O)n(Cc3ccc(Cl)cc3)c3ccccc23)c1O
CC50 at 48 h [1]: > 300 µM

CC(=O)c1cc(C)c(O)c(Cc2[nH]c3cc(-c4cc(C(F)(F)F)cc(C(F)(F)F)c4)ccc3c2Cc2c(O)c(C)cc(C(C)=O)c2O)c1O
CC50 at 48 h [1]: > 300 µM

CC(=O)c1cc(C)c(O)c(Cc2[nH]c3cc(/C=C/c4ccccc4)ccc3c2Cc2c(O)c(C)cc(C(C)=O)c2O)c1O
CC50 at 48 h [1]: > 300 µM

CC(=O)c1cc(C)c(O)c(Cc2c(Cc3c(O)c(C)cc(C(C)=O)c3O)n(N)c3ccccc23)c1O
CC50 at 48 h [1]: > 300 µM

CC(=O)c1cc(C)c(O)c(Cc2[nH]c3ccc(-c4ccccc4F)cc3c2Cc2c(O)c(C)cc(C(C)=O)c2O)c1O
CC50 at 48 h [1]: > 300 µM

CC(=O)c1cc(C)c(O)c(Cc2c(Cc3c(O)c(C)cc(C(C)=O)c3O)n(Cc3ccc(F)cc3)c3ccccc23)c1O
CC50 at 48 h [1]: > 300 µM

COc1ccc(Cn2c(Cc3c(O)c(C)cc(C(C)=O)c3O)c(Cc3c(O)c(C)cc(C(C)=O)c3O)c3ccccc32)cc1
CC50 at 48 h [1]: > 300 µM

CC(=O)c1cc(C)c(O)c(Cc2[nH]c3cc(-c4cccc(F)c4)ccc3c2Cc2c(O)c(C)cc(C(C)=O)c2O)c1O
CC50 at 48 h [1]: > 300 µM

CC(=O)c1cc(C)c(O)c(Cc2[nH]c3ccc(-c4cc(C(C)(C)C)cc(C(C)(C)C)c4)cc3c2Cc2c(O)c(C)cc(C(C)=O)c2O)c1O
CC50 at 48 h [1]: > 300 µM

CC(=O)c1cc(C)c(O)c(Cc2[nH]c3ccc(-c4cccc(F)c4)cc3c2Cc2c(O)c(C)cc(C(C)=O)c2O)c1O
CC50 at 48 h [1]: > 300 µM

CC(=O)c1cc(C)c(O)c(Cc2[nH]c3ccc(-c4ccc5c(c4)CCO5)cc3c2Cc2c(O)c(C)cc(C(C)=O)c2O)c1O
CC50 at 48 h [1]: > 300 µM

CC(=O)c1cc(C)c(O)c(Cc2[nH]c3cc(-c4cccc(O)c4)ccc3c2Cc2c(O)c(C)cc(C(C)=O)c2O)c1O
CC50 at 48 h [1]: 126 µM

— ChEMBL document CHEMBL5625170, “Design, synthesis, and biological evaluation of novel penindolone derivatives as potential inhibitors of hemagglutinin-mediated membrane fusion” (Eur J Med Chem, 2023)
